This passage reports IC50 results from patent US11008572B2, “Methods and compositions for modulating splicing” (SKYHAWK THERAPEUTICS, INC., priority 2017, dated 2021).

Broadly, the IC50 is the concentration that inhibits the measured activity by half.

For one experiment, the system named is A-673 cells. The experiment can be described thus: Cell viability, crystal violet staining. The class given is cell-based. Particulars: Homo sapiens, A673, cell viability, read-out: A-673 IC50 (nM) Cell viability. The protocol: To measure cell viability, cells were plated in 96-well plastic tissue culture plates at a density of 5×10^3 cells/well. Twenty-four hours after plating, cells were treated with various SMSMs. After 72 hours, the cell culture media were removed and plates were stained with […] of a solution containing 0.5% crystal violet and 25% methanol, rinsed with deionized water, dried overnight, and resuspended in […] citrate buffer (0.1 M sodium citrate in 50% ethanol) to assess plating efficiency. Intensity of crystal violet staining, assessed at 570 nm and quantified using a Vmax Kinetic Microplate Reader and Softmax software (Molecular Devices Corp., Menlo Park, Calif.), were directly proportional to cell number. Data were normalized to vehicle-treated cells and were presented as the mean±SE from representative experiments. SMSMs that are effective were determined for various cells lines.
A-673 cell viability […], splicing (IC50) and brain AUC/Plasma AUC of SMSMs were determined. As shown in the tables below SMSMs had high CNS exposure.
With `CN(c1ccc(-c2cc3ccc(OC(F)F)cc3cc2O)nn1)[C@@H]1C[C@H]2CC[C@@H](C1)N2` [compound 166, 3-(6-(((1R,3s,5S)-8-azabicyclo[3.2.1]octan-3-yl)(methyl)amino)pyridazin-3-yl)-7-(difluoromethoxy)naphthalen-2-ol], the IC50 fell in the range of 501 to 1000 nM. On to `CN(c1ccc(-c2ccc(-n3cnc(F)c3)cc2O)nn1)[C@H]1C[C@]2(C)CC[C@](C)(C1)N2` [compound 176, 2-(6-(((1R,3s,5S)-1,5-dimethyl-8-azabicyclo[3.2.1]octan-3-yl)(methyl)amino)pyridazin-3-yl)-5-(4-fluoro-1H-imidazol-1-yl)phenol], for which the IC50 lay in the range of 10 to 100 nM. Still for that read-out and setting: with `CN(c1ccc(-c2cc(F)c(-n3cnc(C#N)c3)cc2O)nn1)[C@H]1C[C@]2(C)CC[C@](C)(C1)N2` [compound 197, 1-(4-(6-(((1R,3s,5S)-1,5-dimethyl-8-azabicyclo[3.2.1]octan-3-yl)(methyl)amino)pyridazin-3-yl)-2-fluoro-5-hydroxyphenyl)-1H-imidazole-4-carbonitrile] the figure was above 1000 nM; with `Cc1cc(-c2ccc(N(C)[C@H]3C[C@]4(C)CC[C@](C)(C3)N4)nn2)c(O)cc1-c1ccn(C)c(=O)c1` [compound 178, 4-(4-(6-(((1R,3s,5S)-1,5-dimethyl-8-azabicyclo[3.2.1]octan-3-yl)(methyl)amino)pyridazin-3-yl)-5-hydroxy-2-methylphenyl)-1-methylpyridin-2(1H)-one], 251 to 500 nM. For `CN(c1ccc(-c2ccc(-c3cnn(C(F)F)c3)cc2O)nn1)[C@H]1C[C@]2(C)CC[C@](C)(C1)N2` [compound 179, 5-(1-(difluoromethyl)-1H-pyrazol-4-yl)-2-(6-(((1R,3s,5S)-1,5-dimethyl-8-azabicyclo[3.2.1]octan-3-yl)(methyl)amino)pyridazin-3-yl)phenol], the half-maximal inhibitory concentration (IC50) lay in the range of 10 to 100 nM. For `CN(c1ccc(-c2ccc(-c3cc(F)nc(F)c3)cc2O)nn1)[C@H]1C[C@]2(C)CC[C@](C)(C1)N2` [compound 204, 5-(2,6-difluoropyridin-4-yl)-2-(6-(((1R,3s,5S)-1,5-dimethyl-8-azabicyclo[3.2.1]octan-3-yl)(methyl)amino)pyridazin-3-yl)phenol], the concentration for half-maximal inhibition (IC50) lay in the range of 100 to 500 nM. Still for that read-out and setting: with `[2H]C([2H])([2H])Oc1cc(-c2ccc(-c3ccc(N(C)[C@H]4C[C@]5(C)CC[C@](C)(C4)N5)nn3)c(O)c2)cnn1` [compound 205, 2-(6-(((1R,3s,5S)-1,5-dimethyl-8-azabicyclo[3.2.1]octan-3-yl)(methyl)amino)pyridazin-3-yl)-5-(6-(methoxy-d3)pyridazin-4-yl)phenol] the figure was below 10 nM; with `CN(c1ccc(-c2ccc(-c3cc(C#N)n(C)c3)cc2O)nn1)[C@H]1C[C@]2(C)CC[C@](C)(C1)N2` [compound 195, 4-(4-(6-(((1R,3s,5S)-1,5-dimethyl-8-azabicyclo[3.2.1]octan-3-yl)(methyl)amino)pyridazin-3-yl)-3-hydroxyphenyl)-1-methyl-1H-pyrrole-2-carbonitrile], 501 to 1000 nM; with `CN(c1ccc(-c2ccc(-c3cc(=O)n(C)cn3)cc2O)nn1)[C@H]1C[C@]2(C)CC[C@](C)(C1)N2` [compound 194, 6-(4-(6-(((1R,3s,5S)-1,5-dimethyl-8-azabicyclo[3.2.1]octan-3-yl)(methyl)amino)pyridazin-3-yl)-3-hydroxyphenyl)-3-methylpyrimidin-4(3H)-one], 10 to 100 nM. The same measure, in the same setting: with `CCN(c1ccc(-c2cc(F)c(-c3cn[nH]c3)cc2O)nn1)[C@H]1C[C@]2(C)CC[C@](C)(C1)N2` [compound 202, 2-(6-(((1R,3s,5S)-1,5-dimethyl-8-azabicyclo[3.2.1]octan-3-yl)(ethyl)amino)pyridazin-3-yl)-4-fluoro-5-(1H-pyrazol-4-yl)phenol] the figure was 10 to 100 nM; with `[2H]C([2H])([2H])Oc1cc(-c2cc(O)c(-c3ccc(N(C)[C@H]4C[C@]5(C)CC[C@](C)(C4)N5)nn3)cc2F)cnn1` [compound 206, 2-(6-(((1R,3s,5S)-1,5-dimethyl-8-azabicyclo[3.2.1]octan-3-yl)(methyl)amino)pyridazin-3-yl)-4-fluoro-5-(6-(methoxy-d3)pyridazin-4-yl)phenol], below 10 nM; with `CN(c1ccc(-c2ccc(-c3cn[nH]c3)cc2O)nn1)[C@@H]1C[C@]2(C)COC[C@](C)(C1)N2` [compound 157, 2-(6-(((1R,5S,7s)-1,5-dimethyl-3-oxa-9-azabicyclo[3.3.1]nonan-7-yl)(methyl)amino)pyridazin-3-yl)-5-(1H-pyrazol-4-yl)phenol], above 1000 nM.

The experiment is the same for the next values; noted with them: Homo sapiens, A673, cell viability, read-out: A-673 IC50 (nM), Cell viability.
Turning to `CN(c1ccc(-c2ccc(-c3ccn(C)c(=O)c3)cc2O)nn1)[C@H]1C[C@]2(C)CCC[C@](C)(C1)N2` [compound 259, 4-(4-(6-(((1R,3s,5S)-1,5-dimethyl-9-azabicyclo[3.3.1]nonan-3-yl)(methyl)amino)pyridazin-3-yl)-3-hydroxyphenyl)-1-methylpyridin-2(1H)-one], the IC50 was below 10 nM. For `Cc1cc(-c2ccc(-c3ccc(N(C)[C@@H]4C[C@H]5CCC[C@@H](C4)N5)nn3)c(O)c2)cc(=O)n1C` [compound 290, 4-(4-(6-(((1R,3s,5S)-9-azabicyclo[3.3.1]nonan-3-yl)(methyl)amino)pyridazin-3-yl)-3-hydroxyphenyl)-1,6-dimethylpyridin-2(1H)-one], the IC50 was 251 to 500 nM.

Consider `CN(c1ccc(-c2ccc(-c3cnn(C)c3)cc2O)nn1)[C@@H]1C[C@H]2CCC[C@@H](C1)N2` [compound 287, 2-(6-(((1R,3s,5S)-9-azabicyclo[3.3.1]nonan-3-yl)(methyl)amino)pyridazin-3-yl)-5-(1-methyl-1H-pyrazol-4-yl)phenol], for which the 50% inhibitory concentration (IC50) was below 10 nM.

`CN(c1ccc(-c2ccc(-c3ccn(C)c(=O)n3)cc2O)nn1)[C@H]1C[C@]2(C)CCC[C@](C)(C1)N2` [compound 305, 4-(4-(6-(((1R,3s,5S)-1,5-dimethyl-9-azabicyclo[3.3.1]nonan-3-yl)(methyl)amino)pyridazin-3-yl)-3-hydroxyphenyl)-1-methylpyrimidin-2(1H)-one]: the IC50 was in the range of 101 to 250 nM. Same read-out and setting: next, `C[C@]12CC[C@](C)(C[C@@H](N(c3ccc(-c4ccc(-c5cn[nH]c5)cc4O)nn3)C3CC3)C1)N2` [compound 302, 2-(6-(cyclopropyl((1R,3s,5S)-1,5-dimethyl-8-azabicyclo[3.2.1]octan-3-yl)amino)pyridazin-3-yl)-5-(1H-pyrazol-4-yl)phenol]: 10 to 100 nM. Turning to `CN(c1ccc(-c2ccc(-c3cnn(C)c(=O)c3)cc2O)nn1)[C@@H]1C[C@H]2CCC[C@@H](C1)N2` [compound 280, 5-(4-(6-(((1R,3s,5S)-9-azabicyclo[3.3.1]nonan-3-yl)(methyl)amino)pyridazin-3-yl)-3-hydroxyphenyl)-2-methylpyridazin-3(2H)-one], the concentration for half-maximal inhibition (IC50) lay in the range of 10 to 100 nM. In the case of `CN(c1ccc(-c2ccc(-c3ccn(C)c(=O)c3)cc2O)nn1)[C@@H]1C[C@H]2CCC[C@@H](C1)N2` [compound 283, 4-(4-(6-(((1R,3s,5S)-9-azabicyclo[3.3.1]nonan-3-yl)(methyl)amino)pyridazin-3-yl)-3-hydroxyphenyl)-1-methylpyridin-2(1H)-one], the IC50 is below 10 nM. On the same count and under the same terms, with `CN(C)C(=O)c1cc2cc(O)c(-c3ccc(N(C)[C@@H]4C[C@H]5CCC[C@@H](C4)N5)nn3)cc2o1` [compound 295, 6-(6-(((1R,3s,5S)-9-azabicyclo[3.3.1]nonan-3-yl)(methyl)amino)pyridazin-3-yl)-5-hydroxy-N,N-dimethylbenzofuran-2-carboxamide] the figure was 251 to 500 nM.

The experiment is the same for the next values; noted with them: Homo sapiens, A673, read-out: A-673 cell viability (IC50).
With `CN(c1ccc(-c2ccc(-c3ccn(C)c(=O)c3)cc2O)nn1)[C@H]1C[C@]2(C)CCC[C@](C)(C1)N2` [compound 259, 4-(4-(6-(((1R,3s,5S)-1,5-dimethyl-9-azabicyclo[3.3.1]nonan-3-yl)(methyl)amino)pyridazin-3-yl)-3-hydroxyphenyl)-1-methylpyridin-2(1H)-one], the IC50 is below 1 nM.
